Results on ten compounds are retold here after patent US11168095B2, “ASK1 inhibiting agents” (BIOGEN MA INC., priority 2017, dated 2021).

pIC50: −log10 of the molar value. Like-named read-outs stand apart in the source and are kept apart here.

What is called pIC50 is the IC50 on a negative log10 scale, so that one unit is a factor of ten.

Assay [1] addresses ASK1 T838 auto phosphorylation in HEK-293T cells (Homo sapiens (Human), UniProt Q99683). Nature of the assay: ASK1 (AUTO PHOS T838) assay, MSD format. The assay is classed as cell-based. Particulars: HEK 293T cells transfected with ASK1-V5 full length plasmid, compounds 1 hr at 37° C.; read-out: IC50.
The target in another assay is ASK1/MAP3K5 (Homo sapiens (Human), UniProt Q99683). The assay can be described thus: ASK1/MAP3K5 assay by Reaction Biology Corp. Format: biochemical. The procedure: ASK1/MAP3K5 was used as the protein kinase and 20 μM of myelin basic protein (MBP) and 10 μM ATP were used as the substrate.
Sequence of ASK1/MAP3K5 (Q99683 whole entry): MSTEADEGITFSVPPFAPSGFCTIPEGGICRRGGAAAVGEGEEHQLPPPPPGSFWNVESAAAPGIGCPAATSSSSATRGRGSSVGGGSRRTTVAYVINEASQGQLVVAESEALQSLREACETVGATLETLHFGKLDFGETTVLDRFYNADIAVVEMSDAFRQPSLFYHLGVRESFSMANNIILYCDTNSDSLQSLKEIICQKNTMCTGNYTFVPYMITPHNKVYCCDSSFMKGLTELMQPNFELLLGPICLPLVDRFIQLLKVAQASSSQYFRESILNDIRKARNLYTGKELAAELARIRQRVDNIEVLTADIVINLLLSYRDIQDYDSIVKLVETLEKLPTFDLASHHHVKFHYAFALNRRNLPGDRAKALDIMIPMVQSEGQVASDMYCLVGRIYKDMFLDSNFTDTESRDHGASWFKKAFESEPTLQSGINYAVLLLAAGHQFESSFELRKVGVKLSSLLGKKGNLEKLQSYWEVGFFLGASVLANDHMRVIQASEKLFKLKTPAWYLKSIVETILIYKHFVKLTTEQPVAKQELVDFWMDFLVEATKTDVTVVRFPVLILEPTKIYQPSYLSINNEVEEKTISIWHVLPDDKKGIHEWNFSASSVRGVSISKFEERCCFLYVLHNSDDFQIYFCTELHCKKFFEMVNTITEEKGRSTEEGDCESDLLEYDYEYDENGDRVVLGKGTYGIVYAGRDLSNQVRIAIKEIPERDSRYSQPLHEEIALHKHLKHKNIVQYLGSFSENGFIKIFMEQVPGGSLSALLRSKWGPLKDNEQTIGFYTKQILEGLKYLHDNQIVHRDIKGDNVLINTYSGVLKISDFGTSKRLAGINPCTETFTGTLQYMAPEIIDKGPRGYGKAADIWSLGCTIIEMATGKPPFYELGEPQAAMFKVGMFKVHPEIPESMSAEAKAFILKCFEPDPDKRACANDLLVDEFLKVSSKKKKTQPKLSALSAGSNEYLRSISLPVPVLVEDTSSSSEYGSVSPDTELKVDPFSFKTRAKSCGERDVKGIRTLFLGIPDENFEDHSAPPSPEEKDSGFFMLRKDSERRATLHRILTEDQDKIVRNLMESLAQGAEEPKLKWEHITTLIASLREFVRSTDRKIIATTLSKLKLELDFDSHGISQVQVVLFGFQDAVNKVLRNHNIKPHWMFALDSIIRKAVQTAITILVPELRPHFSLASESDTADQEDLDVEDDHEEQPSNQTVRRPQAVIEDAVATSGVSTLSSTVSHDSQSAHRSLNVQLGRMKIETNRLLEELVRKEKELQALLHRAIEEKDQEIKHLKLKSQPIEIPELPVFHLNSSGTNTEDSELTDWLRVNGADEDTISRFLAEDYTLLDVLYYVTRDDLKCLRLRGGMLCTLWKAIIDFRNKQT
Setting [2] is: 20 μM myelin basic protein (MBP), 10 μM ATP.

Sequence of ASK1 T838 auto phosphorylation in HEK-293T cells (Q99683 whole entry): as above

With `C[C@H]1CCCOc2cc(F)c(C3=CCOCC3)cc2C(=O)Nc2cccc(n2)-c2nncn21` [Example 108, (S)-5^5-(3,6-Dihydro-2H-pyran-4-yl)-5^4-fluoro-10-methyl-1^4H-6-oxa-3-aza-2(2,6)-pyridina-1(3,4)-triazola-5(1,2)-benzenacyclodecaphan-4-one], the values for the negative logarithm of the IC50 (pIC50) (in assay [1]; at ASK1/MAP3K5 (setting [2])) were > 6.00 and > 7.00, respectively.

`C[C@H]1CCCOc2cc(F)c(-c3cncnc3)cc2C(=O)Nc2cccc(n2)-c2nncn21` [Example 110, (S)-5^4-Fluoro-10-methyl-5^5-(pyrimidin-5-yl)-1^4H-6-oxa-3-aza-2(2,6)-pyridina-1(3,4)-triazola-5(1,2)-benzenacyclodecaphan-4-one]: the values for the negative-log IC50 (pIC50) (in assay [1]; on ASK1/MAP3K5 (setting [2])) were > 6.00 and > 7.00, respectively.

For the compound `C[C@H]1CCCOc2cc(F)c(-c3cncc(C(F)(F)F)c3)cc2C(=O)Nc2cccc(n2)-c2nncn21` [Example 111, (S)-5^4-Fluoro-10-methyl-5^5-(5-(trifluoromethyl)pyridin-3-yl)-1^4H-6-oxa-3-aza-2(2,6)-pyridina-1(3,4)-triazola-5(1,2)-benzenacyclodecaphan-4-one], the results for the pIC50 (in assay [1]; against ASK1/MAP3K5 (setting [2])) were > 6.00 and > 7.00, respectively.

Turning to `C[C@H]1CCCOc2cc(F)c(-c3ccncc3)cc2C(=O)Nc2cccc(n2)-c2nncn21` [Example 112, (S)-5^4-Fluoro-10-methyl-5^5-(pyridin-4-yl)-1^4H-6-oxa-3-aza-2(2,6)-pyridina-1(3,4)-triazola-5(1,2)-benzenacyclodecaphan-4-one], the pIC50 was > 6.00 in assay [1] and > 7.00 on ASK1/MAP3K5 (setting [2]).

In the case of `Cc1cn(-c2cc3c(cc2F)OCCC[C@H](C)n2cnnc2-c2cccc(n2)NC3=O)cn1` [Example 113, (S)-5^4−Fluoro-10-methyl-5^5-(4-methyl-1H-imidazol-1-yl)-1^4H-6-oxa-3-aza-2(2,6)-pyridina-1(3,4)-triazola-5(1,2)-benzenacyclodecaphan-4-one], the values for the pIC50 (in assay [1]; on ASK1/MAP3K5) were > 6.00 and > 7.00, respectively.

`C[C@H]1CCCOc2cc(F)c(-c3cnn(C)c3)cc2C(=O)Nc2cccc(n2)-c2nncn21` [Example 114, (S)-5^4-Fluoro-10-methyl-5^5-(1-methyl-1H-pyrazol-4-yl)-1^4H-6-oxa-3-aza-2(2,6)-pyridina-1(3,4)-triazola-5(1,2)-benzenacyclodecaphan-4-one]: the pIC50 is > 6.00 in assay [1] and > 7.00 against ASK1/MAP3K5 (setting [2]).

Regarding `C[C@H]1CCCOc2cc(F)c(-c3cnn(CCN(C)C)c3)cc2C(=O)Nc2cccc(n2)-c2nncn21` [Example 115, (S)-5^5-(1-(2-(Dimethylamino)ethyl)-1H-pyrazol-4-yl)-5^4-fluoro-10-methyl-1^4H-6-oxa-3-aza-2(2,6)-pyridina-1(3,4)-triazola-5(1,2)-benzenacyclodecaphan-4-one], the negative logarithm of the IC50 (pIC50) is > 6.00 in assay [1] and > 7.00 on ASK1/MAP3K5 (setting [2]).

For the compound `C[C@H]1CCCOc2cc(F)c(OCCN(C)C)cc2C(=O)Nc2cccc(n2)-c2nncn21` [Example 116, (S)-5^5-(2-(Dimethylamino)ethoxy)-5^4-fluoro-10-methyl-1^4H-6-oxa-3-aza-2(2,6)-pyridina-1(3,4)-triazola-5(1,2)-benzenacyclodecaphan-4-one], the pIC50 was > 6.00 in assay [1] and > 7.00 against ASK1/MAP3K5.

On to `COCCOc1cc2c(cc1F)OCCC[C@H](C)n1cnnc1-c1cccc(n1)NC2=O` [Example 117, (S)-5^4-Fluoro-5^5-(2-methoxyethoxy)-10-methyl-1^4H-6-oxa-3-aza-2(2,6)-pyridina-1(3,4)-triazola-5(1,2)-benzenacyclodecaphan-4-one], for which the results for the pIC50 (in assay [1]; against ASK1/MAP3K5 (setting [2])) were > 6.00 and > 7.00, respectively.

Consider `C[C@H]1CCCOc2cc(F)c(C#N)cc2C(=O)Nc2cccc(n2)-c2nncn21` [Example 118, (S)-5^4-Fluoro-10-methyl-4-oxo-1^4H-6-oxa-3-aza-2(2,6)-pyridina-1(3,4)-triazola-5(1,2)-benzenacyclodecaphane-5^5-carbonitrile], for which the pIC50 was > 6.00 in assay [1] and > 7.00 on ASK1/MAP3K5 (setting [2]).
